Test results as given in ChEMBL document CHEMBL2331085, “Identification of Tetrahydropyrido[4,3-d]pyrimidine Amides as a New Class of Orally Bioavailable TGR5 Agonists” (ACS Med Chem Lett, 2013).

Tests used:
[1] = Lipophilicity, log D of the compound by shake-flask method; assay type: physicochemical; conditions: octanol/water
[2] = Oral bioavailability in dog; assay type: ADME, organism-based, Canis lupus familiaris; conditions: in vivo
[3] = Half life in dog at 1 mg/kg, iv and 3 mg/kg, po; assay type: ADME, organism-based, Canis lupus familiaris; conditions: in vivo
[4] = Clearance in dog at 1 mg/kg, iv and 3 mg/kg, po; assay type: ADME, organism-based, Canis lupus familiaris; conditions: in vivo
[5] = Permeability from apical to basolateral side of MDCK cells expressing MDR1; assay type: ADME, cell-based, Canis lupus familiaris; conditions: dog
[6] = Permeability from basolateral to apical side of MDCK cells expressing MDR1; assay type: ADME, cell-based, Canis lupus familiaris; conditions: dog
[7] = Volume of distribution at steady state in dog at 1 mg/kg, iv and 3 mg/kg, po; assay type: ADME, organism-based, Canis lupus familiaris; conditions: in vivo, read-out: Vdss

Row | SMILES | logD [1] | further results
1 | COc1ccc2cc(CNCCc3ccc(Br)cc3)c(-c3ccsc3)nc2c1 | 5.1 | 
2 | CCNc1nc2c(c(C(N)=O)n1)CN(C(=O)CCc1ccccc1)CC2 | 1.4 | 
3 | CCNc1nc2c(c(C(N)=O)n1)CN(C(=O)CCc1ccc(CC)cc1)CC2 | 2.4 | 
4 | CCNc1nc2c(c(C(N)=O)n1)CN(C(=O)CCc1ccc(C(C)C)cc1)CC2 | 3.4 | 
5 | CCNc1nc2c(c(C(N)=O)n1)CN(C(=O)CCc1ccc(OC)cc1)CC2 | 1.05 | 
6 | CCNc1nc2c(c(C(N)=O)n1)CN(C(=O)CCc1ccc(OC(F)(F)F)cc1)CC2 | 3 | bioavailability [2]: 41%; half-life [3]: 50.4 min; clearance [4]: 0.483 L/h/kg; Papp A→B [5]: 124 nm/s; Papp B→A [6]: 192 nm/s; Vd [7]: 0.43 L/kg
7 | CCNc1nc2c(c(C(N)=O)n1)CN(C(=O)CCc1ccc(SC(F)(F)F)cc1)CC2 | 3.5 | 
8 | CCNc1nc2c(c(C(N)=O)n1)CN(C(=O)CCc1ccc(CC(F)(F)F)cc1)CC2 | 2.6 | 
9 | CCNc1nc2c(c(C(N)=O)n1)CN(C(=O)CCc1ccc(C(C)(F)F)cc1)CC2 | 2.2 | 
10 | CCNc1nc2c(c(C(N)=O)n1)CN(C(=O)CCc1ccc(C(C)(F)F)nc1)CC2 | 1.4 | 
11 | CCc1nc2c(c(C(N)=O)n1)CN(C(=O)CCc1ccc(OC(F)(F)F)cc1)CC2 | 2.9 | 
12 | CCOc1nc2c(c(C(N)=O)n1)CN(C(=O)CCc1ccc(OC(F)(F)F)cc1)CC2 | 2.9 | 
13 | NC(=O)c1nc(C2CC2)nc2c1CN(C(=O)CCc1ccc(OC(F)(F)F)cc1)CC2 | 3.3 | 
14 | Cc1ccc(N(C)C(=O)c2c(-c3ccccc3Cl)noc2C)cc1Cl | 3.9 | 
15 | CCc1nnn(-c2ccccc2)c1C(=O)N(C)c1ccc(Cl)cc1 | 2.9 | 
16 | CC[C@H]1[C@@H](O)[C@@H]2[C@H](C[C@H](O)[C@]3(C)[C@@H]([C@H](C)C[C@H](C)C(=O)O)CC[C@@H]23)[C@@]2(C)CCC(O)C[C@@H]12 (single isomer, unassigned) | 1.85 | 
